Like-named read-outs stand apart in the source and are kept apart here.
Assays:
[1] = biological target: NMDA receptor-ionophore complex (polyamine-sensitive ifenprodil binding site); experiment: NMDA assay: competitive binding against [125I]ifenprodil in rat cortical membranes; settings: 30 min, 20° C., pH 7.7
Protocol: The NMDA receptor-ionophore complex consists of a number of interacting domains, including one for polyamines where ifenprodil binds to exert its non-competitive antagonism.
The purified material was stored in methanol at -20° C.
Incubations were for 30 min. at 20° C., in triplicate, employing 12 concentrations of competing drugs. Non-specific binding was defined with 10 mM spermine. Assays were terminated by rapid filtration through GF/B filter paper and washing.

[2] = tested on: lipid peroxidation (MDA formation) in rat brain homogenate; experiment: Antioxidant assay: Fe3+-stimulated lipid peroxidation (TBARs / MDA formation) in rat brain homogenate; format: biochemical
From the text: Lipid peroxidation has been assessed in the present study using two procedures adopted from that described by Ohkawa et al. (1979) and Cheng et al. (1994). The compounds of the present invention have shown significant antioxidant effect in both assay systems.
Malondialdehyde (MDA) is one of the breakdown products of lipid peroxidation. MDA reacts with thiobarbituric acid (TBA) to produce a characteristic pink colour that can be measured spectrophotomerically. […] The present method has been modified from those described by Ohkawa et al. (1979) and Cheng et al. (1994).
Briefly, rat brain 10% homogenates were prepared in aqueous 20 mM Tris-HCl buffer, pH 7.4 media using a Polytron homogeniser. Assays contained 100 μl of rat brain homogenate and various concentrations of test compound (10 μl) were incubated for 10 min at 37° C. Ten μl of 1.0 or 0.1 mM Fe^3+ solution was then added to stimulate lipid peroxidation and the homogenates were incubated for a further 30 min at 37° C. The reaction was stopped by addition of sodium dodecyl sulphate (100 μl of 8.1% wt/vol solution) and 750 μl of 20% sodium acetate buffer (pH 3.5). The precipitated proteins were then removed by centrifugation at 10000 g for 15 min. Five hundred μl of clear supernatant was heated with 1 ml TBA solution (0.8% wt/vol) at 95° C. for 60 min. The samples were cooled and 200 μl of each sample was pipetted into a 96 well plate and absorbencies read at 532 nm using a Ceres UV900C microplate reader. Blank values representing samples containing 20 mM Tris-HCl and Fe^3+ only were subtracted from all values. Each value was expressed as a percentage of that for samples containing homogenate and Fe^3+ only (ie, no drug). From concentration response curves the concentrations causing 50% inhibition of MDA formation (IC50 values) for the test compounds were determined by computer-assisted linear regression analysis according to published methods (Leutner, 1982). These compared favourably with the values obtained in the assay with the benchmark antioxidant compound trolox. […]

[3] = tested on: murine neocortical neurones; experiment: Assay for NMDA-induced toxicity in neuronal cultures (MTT); format: cell-based; settings: Mus musculus, NMDA 600 μM, 1 h, compound added 30 min prior, read-out: EC50 (inhibition of NMDA-induced toxicity)
Protocol: Neuronal cell death was assessed using a 3-(4,5-dimethylthiazol-2yl)-2,5-diphenyltetrazolium bromide (MTT) assay in which NMDA-induced cellular changes are reflected as altered mitochondrial activity (Ankarcrona et al., 1995), as estimated by the formation of a formazan dye, which is measured spectrophotometrically. The procedure employed is essentially that of Roehm et al. (1991) with minor modifications as previously described elsewhere in work from our laboratories Larm et al. (1996).
Primary cultures of murine neocortical neurones were established as described elsewhere (Larm et al., 1996). The effects of experimental compounds were tested in the cultures at 8 days in vitro. Exposure to NMDA (600 μM, 1 h) and other compounds was performed in an humidified incubator (5% CO2, 8% O2) at 37° C. in anti-oxidant free medium with compounds under evaluation being added 30 min prior to NMDA. For these conditions the culture medium was modified by omitting the following components: D,L-α-tocopherol, D,L-α-tocopherol acetate, catalase, superoxide dismutase and L-glutamine. Other details are described in Larm et al. (1996). Absorbance was read at 570 nm using a Ceres UV900 microplate reader. Control cultures were included in each experiment containing either vehicle alone or vehicle plus compound. These controls were taken as 100% neuronal viability, under the experimental conditions, and each experiment also included 500 μM L-glutamate representing 100% glutamatergic neuronal cell death. Background cell death in vehicle control cultures was 5-8%.
Concentration-response curves were generated as described elsewhere (Larm et al., 1996).

[4] = Gotti et al., 1988; cited from earlier work
[5] = tested on: polyamine sensitive binding site of the NMDA receptor complex; settings: Carter et al., Reynolds et al., Robinson et al.; cited from earlier work
[6] = tested on: methamphetamine-induced loss of neostriatal tyrosine hydroxylase activity; settings: mice; Sonsalla et al., 1991; cited from earlier work
[7] = Fe^3+ 100 μM, read-out: ~IC50 (inhibition of MDA formation), Fe^3+ 100 μM
[8] = Fe^3+ 1000 μM, read-out: ~IC50 (inhibition of MDA formation), Fe^3+ 1000 μM

In the case of COc1ccc(OC)c(C(O)CN2CCN(Cc3cc(C(C)(C)C)c(O)c(C(C)(C)C)c3)CC2)c1 (stereo not shown) [Compound 247, 1-(2-(2,5-dimethoxyphenyl)-2-hydroxy)ethyl-4-(3,5-bis(1,1-dimethylethyl)-4-hydroxyphenyl)methylpiperazine], the Ki [1] is reported as 8.5 ± 3.1 µM, the IC50 [2, 7] is reported as ~9.9 µM and the IC50 [2, 8] is reported as ~10.3 µM.

In the case of CC(C)(C)c1cc(CN2CCN(CC(O)c3ccc(Cl)cc3)CC2)cc(C(C)(C)C)c1O (stereo not shown) [Compound 33, 1-(2-(4-Chlorophenyl)-2-hydroxy)ethyl-4-(3,5-bis(1,1-dimethylethyl)-4-hydroxyphenyl)methylpiperazine], the Ki [1] is reported as 10.8 ± 0.6 µM, the IC50 [2, 7] is reported as ~57.2 µM and the IC50 [2, 8] is reported as ~41.4 µM. For the same compound, the EC50 [3] was 0.39 µM.

C[C@@H]([C@H](O)c1ccc(O)cc1)N1CCN(Cc2cc(C(C)(C)C)c(O)c(C(C)(C)C)c2)CC1 (relative stereo) [2 ((R, S)-racemic)] showed a Ki [1] of 14.5 ± 5.6 µM, an IC50 [2, 7] of ~23.8 µM and an IC50 [2, 8] of ~24.1 µM.

Work on Cc1c(C)c2c(c(C)c1O)CCC(C)(CN1CCN(CC(O)c3ccc(Cl)cc3)CC1)O2 (stereo not shown) [Compound 49] yielded a Ki [1] of 15.2 ± 3.9 µM, an IC50 [2, 7] of ~3.6 µM and an IC50 [2, 8] of ~2.4 µM. For the same compound, the EC50 [3] was 2.9 µM.

Work on Cc1c(C)c2c(c(C)c1O)CCC(C)(C(=O)O)O2 (stereo not shown) [trolox, reference compound] yielded an IC50 [2, 7] of ~88.2 µM and an IC50 [2, 8] of ~90.8 µM.

For C[C@H]([C@H](O)c1ccc(O)cc1)N1CCN(Cc2cc(C(C)(C)C)c(O)c(C(C)(C)C)c2)CC1 (relative stereo) [Compound 2 ((R, R)-racemic)], the EC50 [3] was 1.28 µM.

Work on CC(C)(C)c1cc(CN2CCN(CC(O)c3ccc(Cl)s3)CC2)cc(C(C)(C)C)c1O (stereo not shown) [Compound 229, 1-(2-(2-chlorothiophen-5-yl)-2-hydroxy)ethyl-4-(3,5-bis(1,1-dimethylethyl)-4-hydroxyphenyl)methylpiperazine] yielded a Ki [1] of 19.6 ± 5.2 µM.

In the case of CC(C)(C)c1cc(CN2CCN(CC(O)c3ccc(F)cc3)CC2)cc(C(C)(C)C)c1O (stereo not shown) [Compound 161, 1-(2-(4-fluorophenyl)-2-hydroxy)ethyl-4-(3,5-bis(1,1-dimethylethyl)-4-hydroxyphenyl)methylpiperazine], the Ki [1] is reported as 5.4 ± 0.6 µM, the IC50 [2, 7] is reported as ~19.5 µM and the IC50 [2, 8] is reported as ~15.2 µM.

CC(C)(C)c1cc(CN2CCN(CC(O)c3cccc(Cl)c3)CC2)cc(C(C)(C)C)c1O (stereo not shown) [Example 12, 1-(2-(3-chlorophenyl)-2-hydroxy)ethyl-4-(3,5-bis(1,1-dimethylethyl)-4-hydroxyphenyl)methylpiperazine] showed an EC50 [3] of 0.76 µM.

CC(C)(C)c1cc(CN2CCN(CC(O)c3cccc([N+](=O)[O-])c3)CC2)cc(C(C)(C)C)c1O (stereo not shown) [Example 6, 1-(2-(3-nitrophenyl)-2-hydroxy)ethyl-4-(3,5-bis(1,1-dimethylethyl)-4-hydroxyphenyl)methyl piperazine] showed a Ki [1] of 15.1 ± 6.1 µM, an IC50 [2, 7] of ~32.4 µM and an IC50 [2, 8] of ~26.6 µM.

For Cc1cc(OCCN2CCN(CC(O)c3ccc(Cl)cc3)CC2)c(C)c(C)c1O (stereo not shown) [Example 21, 1-(2-(4'-chlorophenyl)-2-hydroxy)ethyl-4-(2-(2', 3', 5'-trimethyl-4'-hydroxyphenoxy))ethyl piperazine], the Ki [1] was 6.1 ± 2 µM, the IC50 [2, 7] was < 3 µM and the IC50 [2, 8] was < 1 µM.

For C[C@H]([C@H](O)c1ccc(O)cc1)N1CCN(Cc2cc(C(C)(C)C)c(O)c(C(C)(C)C)c2)CC1 (relative stereo) [2 ((R, R)-racemic)], the Ki [1] was 15.7 ± 4.6 µM, the IC50 [2, 7] was ~16.8 µM and the IC50 [2, 8] was ~14.9 µM.

With CC(C)(C)c1cc(CN2CCN(CC(O)c3ccc(Br)cc3)CC2)cc(C(C)(C)C)c1O (stereo not shown) [Compound 65, 1-(2-(4-bromophenyl)-2-hydroxy)ethyl-4-(3,5-bis(1,1-dimethylethyl)-4-hydroxyphenyl)methylpiperazine] the Ki [1] was 7 ± 1.5 µM, the IC50 [2, 7] was ~96.8 µM and the IC50 [2, 8] was ~53.3 µM. For the same compound, the EC50 [3] was 0.24 µM.

In the case of OC(CN1CCC(Cc2ccc(F)cc2)CC1)c1ccc(Cl)cc1 (stereo not shown) [eliprodil], the “neuroprotective properties / antiischaemic” value [4] is listed as “neuroprotective properties in models of neurodegeneration following ischaemia” and the “interaction with the polyamine sensitive site of the NMDA receptor complex” value [5] is listed as “interacting with the polyamine sensitive binding site of the NMDA receptor”.

For CC(C(O)c1ccc(O)cc1)N1CCC(Cc2ccccc2)CC1 (stereo not shown) [ifenprodil], the Ki [1] is given as 19.5 ± 1.2 µM, the “protection from methamphetamine-induced loss of neostriatal tyrosine hydroxylase activity” value [6] is given as “protect mice from the methamphetamine-induced loss of neostriatal tyrosine hydroxylase activity” and the “neuroprotective properties / antiischaemic” value [4] is given as “neuroprotective properties in models of neurodegeneration following ischaemia”. The “interaction with the polyamine sensitive site of the NMDA receptor complex” value [5] was “interacting with the polyamine sensitive binding site of the NMDA receptor”.

With CC(C)(C)c1cc(CN2CCN(CC(O)c3ccc4c(c3)OCO4)CC2)cc(C(C)(C)C)c1O (stereo not shown) [Compound 211, 1-(2-(3,4-methylenedioxyphenyl)-2-hydroxy)ethyl-4-(3,5-bis(1,1-dimethylethyl)-4-hydroxyphenyl)methyl piperazine] the Ki [1] was 19.1 ± 5.7 µM.

With CC(C)(C)c1cc(CN2CCN(CCC(O)c3ccc(Cl)cc3)CC2)cc(C(C)(C)C)c1O (stereo not shown) [Compound 35, 1-(3-(4-Chlorophenyl)-3-hydroxy)propyl-4-(3,5-bis(1,1-dimethylethyl)-4-hydroxyphenyl)methylpiperazine] the Ki [1] was 16.8 ± 3.2 µM, the IC50 [2, 7] was ~27.9 µM and the IC50 [2, 8] was ~9.3 µM.

In the case of Cc1cc(CN2CCN(CC(O)c3ccc(Cl)cc3)CC2)cc(C(C)(C)C)c1O (stereo not shown) [Compound 265, 1-(2-(4-chlorophenyl)-2-hydroxy)ethyl-4-(3-(1,1-dimethylethyl)-4-hydroxy-5-methylphenyl)methylpiperazine], the Ki [1] is reported as 13.2 ± 2.6 µM, the IC50 [2, 7] is reported as ~59.4 µM and the IC50 [2, 8] is reported as ~38.5 µM.

In the case of CC(C)(C)c1cc(CN2CCN(CC(O)c3ccc(OC(F)(F)F)cc3)CC2)cc(C(C)(C)C)c1O (stereo not shown) [Compound 193, 1-(2-(4-trifluoromethoxyphenyl)-2-hydroxy)ethyl-4-(3,5-bis(1,1-dimethylethyl)-4-hydroxyphenyl)methylpiperazine], the Ki [1] is reported as 11.7 ± 1 µM, the IC50 [2, 7] is reported as ~59.6 µM and the IC50 [2, 8] is reported as ~22.3 µM.

Work on CC(C(O)c1ccc(Cl)cc1)N1CCN(Cc2cc(C(C)(C)C)c(O)c(C(C)(C)C)c2)CC1 (stereo not shown) [Compound 34, 1-(2-(4-Chlorophenyl)-2-hydroxy-1-methyl)ethyl-4-(3,5-bis(1,1-dimethylethyl)-4-hydroxyphenyl)methylpiperazine] yielded a Ki [1] of 14.6 ± 2.8 µM, an IC50 [2, 7] of ~25.4 µM and an IC50 [2, 8] of ~36.3 µM.

Compound C[C@@H]([C@H](O)c1ccc(O)cc1)N1CCN(Cc2cc(C(C)(C)C)c(O)c(C(C)(C)C)c2)CC1 (relative stereo) has an EC50 [3] of 3.01 µM.

For CC(C)(C)c1cc(CN2CCN(CC(O)c3ccc(O)cc3)CC2)cc(C(C)(C)C)c1O (stereo not shown) [Compound 1, 1-(2-(4-hydroxyphenyl)-2-hydroxy)ethyl-4-(3,5-bis(1,1-dimethylethyl)-4-hydroxyphenyl)methylpiperazine], the Ki [1] was 13 ± 0.6 µM, the IC50 [2, 7] was ~32.7 µM and the IC50 [2, 8] was ~18.3 µM.

— patent US6232314A, “Arylalkylpiperazine compounds as antioxidants” (Monash University, priority 1996, dated 2001)
